Measured values from PubChem BioAssay (NCI).
“And” between values parts separate entries of the source, which are not always exact repeats. Equal entries are not always repeated.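 Dose response: 5 concentrations. Exposure: 48 h. Format: 96-well plates. Endpoint: linear interpolation; highest concentration if not reached. GI50 is the concentration that inhibits growth by half. Definition used: TGI = concentration required for complete inhibition of growth.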

How the values were obtained:
Experiment in all cases: NCI tumour cell line growth inhibition, 48 h
MCF7 breast = system: MCF7 breast
SK-OV-3 ovarian = system: SK-OV-3 ovarian
NCI-H522 lung = system: NCI-H522 lung
SF-295 CNS = system: SF-295 CNS
SN12C renal = system: SN12C renal
SNB-19 CNS = system: SNB-19 CNS
LOX IMVI melanoma = system: LOX IMVI melanoma
HOP-92 NSCLC = system: HOP-92 NSCLC
HCT-15 colon = system: HCT-15 colon
MOLT-4 leukemia = system: MOLT-4 leukemia
HT29 colon = system: HT29 colon

Compound | TGI (MCF7 breast) | TGI (SK-OV-3 ovarian) | TGI (NCI-H522 lung) | TGI (SF-295 CNS) | TGI (SN12C renal) | TGI (SNB-19 CNS) | TGI (LOX IMVI melanoma) | TGI (HOP-92 NSCLC) | TGI (HCT-15 colon) | TGI (MOLT-4 leukemia) | TGI (HT29 colon) | GI50 (SNB-19 CNS) | GI50 (HOP-92 NSCLC) | GI50 (SK-OV-3 ovarian) | GI50 (MOLT-4 leukemia) | GI50 (NCI-H522 lung) | GI50 (SF-295 CNS)
Nc1ccc2ccc(-c3ccc[nH]3)nc2n1 | > 100 µM | > 100 µM | > 100 µM | > 100 µM | > 100 µM | > 100 µM | > 100 µM | > 100 µM | > 100 µM | – | – | – | – | – | – | – | –
CN[C@@H](C)[C@@H](O)c1ccccc1 | > 100 µM | – | > 10 µM | > 100 µM | > 100 µM | > 100 µM | > 100 µM | > 100 µM | > 100 µM | > 100 µM | > 100 µM | – | – | – | – | – | –
CCCCCN(CCCCC)CC(C)(C)C(O)c1ccc(OC)c2ccccc12 (configuration not stated) | 22.5 µM | – | 20.3 µM | 29.7 µM | 25.2 µM | 28 µM | 4.99 µM | 12.7 µM | 21 µM | 76.9 µM | 16.5 µM | – | – | – | – | – | –
CCOC(=O)C(=CN1CCNC1=S)C(=O)OCC | > 100 µM | > 100 µM | > 100 µM | > 100 µM | > 100 µM | > 100 µM | > 100 µM | > 100 µM | > 100 µM | > 100 µM | > 100 µM | > 100 µM | > 100 µM | – | – | – | –
CC(=O)N(C(C)=O)n1c(Cc2ccc(C)cc2)nn(C(C)=O)c1=O | > 100 µM | > 100 µM | > 100 µM | > 100 µM | > 100 µM | > 100 µM | > 100 µM | > 100 µM | > 100 µM | > 100 µM | > 100 µM | – | – | – | – | – | –
Cc1ccc(S(=O)(=O)N/N=C2/CCC(C(C)(C)C)CC2Br)cc1 (configuration not stated) | 51.9 µM | > 100 µM | 35.3 µM | > 100 µM | 32.4 µM | > 100 µM | 30.5 µM | 72.3 µM | > 100 µM | 49.3 µM | 88.9 µM | – | – | – | – | – | –
CC(=O)NC1(C(=O)N[C@@H](Cc2ccccc2)C(=O)NC2CCCCC2)Cc2ccc3ccccc3c2-c2c(ccc3ccccc23)C1 | > 100 µM | > 100 µM | > 100 µM | > 100 µM | – | > 100 µM | > 100 µM | > 100 µM | > 100 µM | – | > 100 µM and 57.5 µM | 11 µM and 28.8 µM | – | 27.6 µM and > 100 µM | 1.91 µM and 4.43 µM | 4.56 µM and 10.4 µM | 2.55 µM and 0.662 µM
CCCc1nnc2sc(COc3cc(Cl)c(OCc4nn5c(CCC)nnc5s4)cc3Cl)nn12 | 72.9 µM | 82.5 µM | > 100 µM | > 100 µM | > 100 µM | > 100 µM | > 100 µM | 70.7 µM | > 100 µM | > 100 µM | > 100 µM | – | – | – | – | – | –
CCOc1ccc(/C=C2\NC(=S)N(/C=C3\C(=O)Oc4ccccc4C3=O)C2=O)cc1 | 63.1 µM | 38.8 µM | 51.2 µM | 49.8 µM | 45.3 µM | 59.8 µM | 87.5 µM | 53.4 µM | 49.9 µM | 51.2 µM | 82.1 µM | – | – | – | – | – | –
COc1c(C)c(C/C=C(\C)CC/C=C(\C)CC/C=C(\C)CCC=C(C)C)c(OC)c2ccccc12 | > 100 µM | > 100 µM | > 100 µM | > 100 µM | > 100 µM | > 100 µM | > 100 µM | > 100 µM | > 100 µM | > 100 µM | > 100 µM | – | – | – | – | – | –
O=C(C(Cl)=C(N1CCCCC1)N1CCCCC1)C(Cl)Cl | > 100 µM | > 100 µM | > 100 µM | > 100 µM | > 100 µM | > 100 µM | > 100 µM | > 100 µM | > 100 µM | > 100 µM | > 100 µM | – | – | – | – | – | –
O=C(c1ccc(O)c([N+](=O)[O-])c1)c1ccc(O)c([N+](=O)[O-])c1 | > 100 µM | > 100 µM | > 100 µM | > 100 µM | > 100 µM | > 100 µM | > 100 µM | > 100 µM | > 100 µM | – | > 100 µM | – | – | – | – | – | –
COc1ccc2c(c1)c1nn(CCN3CCCCC3)c3ccc4c(=O)n(CCN(C)C)c(=O)n2c4c13 | < 0.0504 µM | 2.91 µM | < 0.0341 µM | < 0.0192 µM | 0.0984 µM | 0.532 µM | 0.178 µM | 0.901 µM | 0.0825 µM | – | 0.0963 µM | – | – | – | – | – | –
O=C(O)CCc1ccc2c(c1)CC1(Cc3ccccc3C1)C2 | > 100 µM | > 100 µM | > 100 µM | > 100 µM | > 100 µM | – | > 100 µM | > 100 µM | > 100 µM | > 100 µM | > 100 µM | – | – | – | – | – | –
COC12C=CC(C=C1C#N)CC2 (configuration not stated) (tested in a mixture with another compound) | > 100 µM | > 100 µM | > 100 µM | > 100 µM | > 100 µM | > 100 µM | – | > 100 µM | > 100 µM | > 100 µM | > 100 µM | – | – | – | – | – | –
CCCN(CCC)C1CCc2c(ccc3cc[nH]c23)C1 (configuration not stated) | > 100 µM | > 100 µM | > 100 µM | > 100 µM | > 100 µM | > 100 µM | – | > 100 µM | > 100 µM | 96.7 µM | > 100 µM | – | – | – | – | – | –
